# Experimental data from US20080214535A1, “Amorphous Aprepitant Coprecipitates” (DR. REDDY'S LABORATORIES LTD., priority 2005, published 2008).
# Read-outs that look alike come from different tables or passages of the source.
# Legend:
# [1] = cited from earlier work
# [2] = Solubility comparison: saturated solution in water, absorbance at 210 nm; assay type: physicochemical; settings: room temperature
# Method: Solubility studies of different aprepitant powders were conducted. Sufficient aprepitant having either crystalline Form I or II, or in the form of an amorphous povidone coprecipitate, was added to a 25 ml test tube containing 10 ml of water at room temperature to get a saturated solution. The solutions were filtered and filtrate was used to obtain the absorbance at 210 nm. Absorbance was compared to standards prepared by dissolving aprepitant in methanol, then diluting aliquots with water.
Compound,Solubility in acetonitrile ([1]; acetonitrile),Solubility in ethanol ([1]; ethanol),Solubility in isopropyl acetate ([1]; isopropyl acetate),Solubility in water ([1]; water),Solubility in water [2] [µg/mL]
"C[C@@H](O[C@H]1OCCN(Cc2n[nH]c(=O)[nH]2)[C@H]1c1ccc(F)cc1)c1cc(C(F)(F)F)cc(C(F)(F)F)c1 [Aprepitant, 5-[[(2R,3S)-2-[(1R)-1-[3,5-bis(trifluoromethyl)phenyl]ethoxy]-3-(4-fluorophenyl)-4-morpholinyl]methyl]-1,2-dihydro-3H-1,2,4-triazol-3-one]",slightly soluble,sparingly soluble,sparingly soluble,practically insoluble,
"C[C@@H](O[C@H]1OCCN(Cc2n[nH]c(=O)[nH]2)[C@H]1c1ccc(F)cc1)c1cc(C(F)(F)F)cc(C(F)(F)F)c1 [crystalline Form I, 5-[[(2R,3S)-2-[(1R)-1-[3,5-bis(trifluoromethyl)phenyl]ethoxy]-3-(4-fluorophenyl)-4-morpholinyl]methyl]-1,2-dihydro-3H-1,2,4-triazol-3-one]",,,,,20
"C[C@@H](O[C@H]1OCCN(Cc2n[nH]c(=O)[nH]2)[C@H]1c1ccc(F)cc1)c1cc(C(F)(F)F)cc(C(F)(F)F)c1 [crystalline Form II, 5-[[(2R,3S)-2-[(1R)-1-[3,5-bis(trifluoromethyl)phenyl]ethoxy]-3-(4-fluorophenyl)-4-morpholinyl]methyl]-1,2-dihydro-3H-1,2,4-triazol-3-one]",,,,,140
